Source: article PMC5651845, “A New Generation of Arachidonic Acid Analogues as Potential Neurological Agent Targeting Cytosolic Phospholipase A2” (Scientific Reports, 2017)

Tests used:
[1] = PAMPA with porcine brain lipids (BBB permeation); conditions: pig, pH 7.4
Description: Thus to explore whether 2i is able to penetrate into the brain, we used PAMPA with porcine brain lipids as the lipid barrier. […] A minimum Pe of […] × 10^−6 cm/s has been cited as the threshold for permeability across the blood brain barrier.
The Parallel Artificial Membrane Permeability Assay (PAMPA) was used to determine the effective permeability (Pe) of 2i. The method reported by Di et al.[53] was followed with modifications. Determinations were carried out on MultiScreen-IP PAMPA assay (donor) plates (MAIPNTR10) and MultiScreen Receiver Plates (MATRNPS50) from Millipore Corporation (USA) with porcine polar brain lipids (Avanti Polar Lipids Inc, Alabaster, AL) as the lipid barrier.
An aliquot (5 µL) of 2% porcine brain lipids in dodecane (ReagentPlus®, Sigma Aldrich, USA) was dispensed into the donor well. A stock solution (5 mM) of 2i prepared in DMSO was diluted with 1x phosphate buffer (PBS, pH 7.4) to give a 50 µM solution. An aliquot (300 µL) of the solution was dispensed into the donor well and an equal volume of buffer (1xPBS with 1% DMSO) was added to the corresponding acceptor well. The donor and acceptor plates were assembled, the unit was placed in a humidified box and gently agitated on a mini shaker at room temperature (25 °C) for 16 h. After this time, aliquots (200 µL) were withdrawn from the donor and acceptor wells, diluted separately to 1 mL with PBS, and quantified at λmax of 290 nm on a Shimadzu UV-1800 Spectrophotometer.
300 µL aliquots of stock solutions (500 µM, 1xPBS, 0.1% DMSO) were dispensed to donor wells as described earlier. Quantification was by UV at λmax of 272 nm (caffeine), 284 nm (carbamazepine), 330 nm (quinidine), 280 nm (dopamine) and 288 nm (propanolol). […] Pe was obtained from (3):3 Pe=−2.303×{VAVD/[(VA+VD)×A×t]}×log{1−[(VA+VD)/(VD.S)]×CA(t)/CD(0)} where VA and VD are the volumes of acceptor (cm^3) and donor (cm^3) wells respectively, A is the area of the surface area of the membrane (0.24 cm^2), t is the permeation time (s). The Pe of each compound was obtained from at least 3 separate experiments using 2 different stock solutions. For each independent determination, triplicates (3 wells) were run for each compound.

HEK293T cells = assay: MTS cell proliferation assay on HEK293T cells; type: cell-based, human; conditions: 10 μM, 48 h and 72 h, vs vehicle control
Description: To explore whether the inhibitors are cytotoxic, MTS assay were conducted on BV-2 cells, a murine microglial cell line derived from post-natal mouse cerebella, and HEK293T cells that are derived from human embryonic kidney. Both cell types were treated with 10 μM of 1a, 2g and 2i for 48 h and 72 h (Fig. 3A,B). Dimethyl sulfoxide (DMSO) vehicle control was also included as the compounds were dissolved in DMSO.
Cells were plated on a 96-wells plate and grown for 24 h to a density of 8000 cells per well for both HEK293T and BV-2 cells. Cells were cultured at 37 °C under a 5% CO2 environment in 100 μL of culture medium. Thereafter, the compound of interest dissolved in culture medium at a concentration of 10 μM was replaced into each well. DMSO was added as vehicle in the control group. 3 biological replicates were performed. The plates were then incubated at 37 °C with 5% CO2 for 48 h and 72 h. At each individual time point, 20 μL of CellTiter 96® AQueous One Solution (MTS reagent) was added into each well and re-incubated at 37 °C with 5% CO2 without light for 3 h. Colorimetric readings were taken using a Varioskan plate reader at 490 nm and analyzed. Three independent biological repeats with four technical replicates were performed.

Papp at 16 h, 50 µM [1]: 12.3 ± 1.46 ×10⁻⁶ cm/s
Structure (SMILES): CCCCC/C=C\C/C=C\C/C=C\C/C=C\CCCCC(=O)Nc1cccc(C(=O)O)c1 [2i]
cytotoxicity (MTS) on HEK293T cells (HEK293T cells): no significant toxic effects
